Test results: patent publication US20140296354A1, “SYNTHESIS OF PEPTOID-BASED SMALL MOLECULAR GELATORS FROM MULTIPLE COMPONENT REACTIONS” (OLD DOMINION UNIVERSITY RESEARCH FOUNDATION, priority 2013, published 2014)
Non-standard residues stand in square brackets, D forms with d. Residues, ends and D or L forms follow the SMILES beside them. *: point of attachment. Nphe = O=C(O)CNCc1ccccc1; Bz = O=C(c1ccccc1)*

How the values were obtained:
[1] = Gelation test in solvents at room temperature; assay type: physicochemical; set-up: key to Gelation test result: I, insoluble; P, precipitating; S, soluble at ~20 mg/mL; G, gel at room temperature; number is minimum gelation concentration; settings: for Gelation result / preliminary MGC (stable gel) / concentration of slightly unstable or partial gel (UG): Table 3; for Gelation test result / minimum gelation concentration: room temperature
Description: (§1) Gelation tests were performed by adding incremental amounts of compounds to a solvent or solvent system at room temperature and observing the results (i.e., gel formation, solubility of compounds, insolubility of compounds, or formation of a precipitate). […] The term “precipation” means that the compound dissolves upon heating and sonicating, however, it crashes out of solution when the heat is removed.
(§2) After the compounds were synthesized, they were screened for gelation properties. […] For the compounds with new chiral centers, they formed gels in aqueous environment preferentially.

[2] = Gelation test in solvents at room temperature; assay type: physicochemical; set-up: key: S, soluble (starting test at 20 mg/mL); I, insoluble; P, precipitate; G, stable gel, the numbers after G are preliminary MGCs in mg/mL; UG, slightly unstable gels or partial gels, concentrations are 20 mg/mL unless otherwise noted; settings: Table 3
Description: as §1, §2

[3] = Gelation test in solvents at room temperature; assay type: physicochemical; set-up: key: I, insoluble; P, precipitating; S, soluble at ~20 mg/mL; G, gel at room temperature; number is minimum gelation concentration; settings: Table 3
Description: as §1, §2

Gelation result ([2]; DMSO:H2O 1:1)	Gelation result ([2]; DMSO:H2O 1:2)	Gelation result ([2]; EtOH:H2O (1:2))	Gelation result ([2]; Water)	Gelation result ([3]; Hexane)	preliminary MGC (stable gel) ([1]; DMSO:H2O 1:1) [mg/mL]	preliminary MGC (stable gel) ([1]; DMSO:H2O 1:2) [mg/mL]	SMILES	Gelation result ([1]; EtOH)	other results
P	P	P	P	–	–	–	O=C(CN(C(=O)c1ccccc1)c1ccccc1)NC1CCCCC1 [Compound 39]	S (S, soluble (starting test at 20 mg/mL))	Gelation result ([2]; Hexane): P
–	–	P	G	–	–	–	COc1ccc(C(C(=O)NC2CCCCC2)N(C(C)=O)[C@H](C)c2ccccc2)cc1 (single isomer, unassigned) [Compound 38b]	–	preliminary MGC (stable gel) ([1]; Water): 21.0 mg/mL; Gelation result ([3]; DMSO:H2O 1:2): I
–	–	–	–	–	–	–	COC1OC2COC(c3ccccc3)OC2C(O)C1N(CC(=O)NC1CCCCC1)C(=O)c1ccc(Br)cc1 (centres unmarked) [Compound 25, 4-Bromo-N-(2-(cyclohexylamino)-2-oxoethyl)-N-(8-hydroxy-6-methoxy-2-phenyl-hexahydropyrano[3,2-d][1,3]dioxin-7-yl)benzamide]	–	Gelation test result ([1]; DMSO:H2O (1:1)): G; minimum gelation concentration ([1]; DMSO:H2O (1:1)): 20.0 mg/mL; Gelation test result ([1]; DMSO:H2O (1:2)): P; Gelation test result ([1]; EtOH): G; minimum gelation concentration ([1]; EtOH): 20.0 mg/mL; Gelation test result ([1]; EtOH:H2O (1:1)): G; minimum gelation concentration ([1]; EtOH:H2O (1:1)): 20.0 mg/mL; Gelation test result ([1]; EtOH:H2O (1:2)): G; minimum gelation concentration ([1]; EtOH:H2O (1:2)): 20.0 mg/mL; Gelation test result ([1]; H2O): I; Gelation test result ([1]; Hexane): P; melting point: 291 to 293 °C
–	P	G	UG	I	–	–	COc1ccc(C(C(=O)NC2CCCCC2)N(Cc2ccccc2)C(C)=O)cc1 (racemic) [Compound 37]	S (S, soluble (starting test at 20 mg/mL))	preliminary MGC (stable gel) ([1]; EtOH:H2O (1:2)): 15.0 mg/mL; concentration of slightly unstable or partial gel (UG) ([1]; Water): 17000 µg/mL
G	G	G	–	I	20.0	20.0	COc1ccc(CN(CC(=O)NCS(=O)(=O)c2ccc(C)cc2)C(=O)c2ccc(Br)cc2)cc1 [Compound 35]	–	preliminary MGC (stable gel) ([1]; EtOH:H2O (1:2)): 10.0 mg/mL; Gelation result ([3]; Water): I; Gelation result ([2]; EtOH): P
P	P	P	P	I	–	–	CCOC(=O)CNC(=O)CN(CCNC(=O)OC(C)(C)C)C(=O)Cc1ccc2ccccc2c1 [Compound 33]	S (S, soluble (starting test at 20 mg/mL))	–
P	G	P	UG	I	–	20.0	O=C(CN(Cc1ccccc1)C(=O)c1ccc(C(=O)N(CC(=O)NC2CCCCC2)Cc2ccccc2)cc1)NC1CCCCC1 [Compound 29]	–	concentration of slightly unstable or partial gel (UG) ([1]; Water): 20000 µg/mL; Gelation result ([2]; EtOH): UG
–	UG	–	UG	–	–	–	COc1ccc(C(C(=O)NC2CCCCC2)N(C(C)=O)[C@H](C)c2ccccc2)cc1 (single isomer, unassigned) [Compound 38a]	S (S, soluble (starting test at 20 mg/mL))	concentration of slightly unstable or partial gel (UG) ([1]; DMSO:H2O 1:2): 18000 µg/mL; concentration of slightly unstable or partial gel (UG) ([1]; Water): 17000 µg/mL; Gelation result ([3]; EtOH:H2O (1:2)): I; Gelation result ([2]; Hexane): P
–	–	–	–	–	–	–	O=C(CN(Cc1ccccc1)C(=O)c1ccccc1)NC1CCCCC1 [Compound 16, N-benzyl-N-(2-(cyclohexylamino)-2-oxoethyl)benzamide]	–	Gelation test result ([1]; DMSO:H2O (1:1)): P; Gelation test result ([1]; DMSO:H2O (1:2)): P; Gelation test result ([1]; EtOH): P; Gelation test result ([1]; EtOH:H2O (1:1)): P; Gelation test result ([1]; EtOH:H2O (1:2)): P; Gelation test result ([1]; H2O): I; Gelation test result ([1]; Hexane): I; melting point: 104 to 106 °C
UG	UG	–	P	I	–	–	O=C(O)CNC(=O)CN(Cc1ccccc1)C(=O)c1ccc(C(=O)N(CC(=O)NCC(=O)O)Cc2ccccc2)cc1 [Compound 43]	S (S, soluble (starting test at 20 mg/mL))	concentration of slightly unstable or partial gel (UG) ([1]; DMSO:H2O 1:1): 20000 µg/mL; concentration of slightly unstable or partial gel (UG) ([1]; DMSO:H2O 1:2): 20000 µg/mL
G	G	–	P	I	10.0	10.0	COC1OC2COC(c3ccccc3)OC2C(O)C1N(CC(=O)NC1CCCCC1)C(C)=O (centres unmarked) [Compound 31]	–	Gelation result ([1]; EtOH:H2O (1:2)): S (S, soluble (starting test at 20 mg/mL)); preliminary MGC (stable gel) ([1]; EtOH): 10.0 mg/mL; Gelation result ([2]; EtOH): G
G	G	G	G	I	20.0	10.0	CCOC(=O)CNC(=O)CN(Cc1ccc(OC)cc1)C(=O)CCC(=O)NC1C(OC)OC2COC(c3ccccc3)OC2C1O (centres unmarked) [Compound 34]	–	preliminary MGC (stable gel) ([1]; EtOH:H2O (1:2)): 20.0 mg/mL; preliminary MGC (stable gel) ([1]; EtOH): 10.0 mg/mL; preliminary MGC (stable gel) ([1]; Water): 10.0 mg/mL; gelation properties (in words) ([1]; screening of Table 3 compounds): able to gelate in water as well as almost all the tested solvents; Gelation result ([2]; EtOH): G
G	UG	G	P	I	20.0	–	CCOC(=O)CNC(=O)CN(C(=O)c1ccc(Br)cc1)C1C(OCC)OC2COC(c3ccccc3)OC2C1O (centres unmarked) [Compound 32]	S (S, soluble (starting test at 20 mg/mL))	concentration of slightly unstable or partial gel (UG) ([1]; DMSO:H2O 1:2): 20000 µg/mL; preliminary MGC (stable gel) ([1]; EtOH:H2O (1:2)): 20.0 mg/mL
G	G	P	–	–	20.0	20.0	COC1OC(CO)C(O)C(O)C1N(CC(=O)NC1CCCCC1)C(=O)c1ccc(Br)cc1 (centres unmarked) [Compound 40]	S (S, soluble (starting test at 20 mg/mL))	Gelation result ([1]; Hexane): S (S, soluble (starting test at 20 mg/mL)); Gelation result ([3]; Water): I
–	–	–	–	–	–	–	CCOC(=O)CNC(=O)CN(Cc1ccccc1)C(=O)c1ccccc1 [Compound 22, Ethyl 2-(2-(N-benzylbenzamido)acetamido)acetate] (Bz-[Nphe]-Gly-OEt)	–	Gelation test result ([1]; DMSO:H2O (1:1)): S (S, soluble at ~20 mg/mL); Gelation test result ([1]; DMSO:H2O (1:2)): P; Gelation test result ([1]; EtOH): P; Gelation test result ([1]; EtOH:H2O (1:1)): P; Gelation test result ([1]; EtOH:H2O (1:2)): P; Gelation test result ([1]; H2O): S (S, soluble at ~20 mg/mL); Gelation test result ([1]; Hexane): S (S, soluble at ~20 mg/mL)
G	G	P	–	–	20.0	20.0	CC1(C)OCC(CN(CC(=O)NC2CCCCC2)C(=O)c2ccc(Br)cc2)O1 (centres unmarked) [Compound 27]	–	Gelation result ([1]; Hexane): S (S, soluble (starting test at 20 mg/mL)); Gelation result ([1]; Water): S (S, soluble (starting test at 20 mg/mL)); Gelation result ([2]; EtOH): P
P	P	P	P	I	–	–	COc1ccc(CN(CC(=O)NCC(=O)O)C(=O)c2ccc(Br)cc2)cc1 [Compound 42]	S (S, soluble (starting test at 20 mg/mL))	–
P	P	P	–	I	–	–	CCOC(=O)CNC(=O)CN(Cc1ccccc1)C(=O)c1ccc(C(=O)N(CC(=O)NCC(=O)OCC)Cc2ccccc2)cc1 [Compound 30]	S (S, soluble (starting test at 20 mg/mL))	Gelation result ([3]; Water): I
UG	P	P	P	I	–	–	COc1ccc(CN(CC(=O)Nc2ccc(Oc3ccc(NC(=O)CN(Cc4ccc(OC)cc4)C(=O)c4ccc(Br)cc4)cc3)cc2)C(=O)c2ccc(Br)cc2)cc1 [Compound 36]	S (S, soluble (starting test at 20 mg/mL))	concentration of slightly unstable or partial gel (UG) ([1]; DMSO:H2O 1:1): 20000 µg/mL
–	–	–	–	I	–	–	O=C(CN(CC(O)CO)C(=O)c1ccc(Br)cc1)NC1CCCCC1 (centres unmarked) [Compound 41]	S (S, soluble (starting test at 20 mg/mL))	Gelation result ([1]; DMSO:H2O 1:1): S (S, soluble (starting test at 20 mg/mL)); Gelation result ([1]; DMSO:H2O 1:2): S (S, soluble (starting test at 20 mg/mL)); Gelation result ([1]; EtOH:H2O (1:2)): S (S, soluble (starting test at 20 mg/mL)); Gelation result ([1]; Water): S (S, soluble (starting test at 20 mg/mL))
